From ChEMBL document CHEMBL3784922, “D-Amino acid oxidase inhibitors based on the 5-hydroxy-1,2,4-triazin-6(1H)-one scaffold” (Bioorg Med Chem Lett, 2016) come the findings set out here.

Where only a bound is given, the exact number is not on record here.

For data set [1], the system named is Mus musculus. Put plainly: In-vivo inhibition of DAAO in CD-1 mouse assessed as plasma clearance of D-serine at 30 mg/kg, po upto 3 hrs. Type of data set: organism-based.
Data set [2] deals with Mus musculus. Description: In-vivo inhibition of DAAO in CD-1 mouse assessed as increase in D-serine AUC (0 to 6 hrs) at 30 mg/kg, po relative to control. Type of data set: functional.
Data set [3] is described as follows: Metabolic stability in mouse liver microsomes assessed as compound remaining after 60 mins by LC-MS/MS analysis in presence of UDPGA. Type of data set: ADME. The conditions noted are these: for Stability: microsomes, 1 h.
Data set [4] has as its target D-amino-acid oxidase (Homo sapiens, UniProt P14920). Put plainly: Inhibition of recombinant human DAAO assessed as oxidative deamination of D-serine in presence of molecular oxygen and FAD after 20 mins.
In data set [5] the test system is Mus musculus. Put plainly: In-vivo inhibition of DAAO in CD-1 mouse assessed as plasma clearance of D-serine at 30 mg/kg, po after 3 hrs. Type of data set: organism-based.
Data set [6] concerns Mus musculus. Put plainly: AUC (0 to 6 hrs) in CD-1 mouse plasma at 30 mg/kg, po by HPLC-MS analysis. Type of data set: ADME, organism-based. Set-up: time < 6 hr, dose 30 mg/kg, route oral. The settings on record: in vivo.
Data set [7] can be described thus: Metabolic stability in mouse liver microsomes assessed as compound remaining after 60 mins by LC-MS/MS analysis in presence of NADPH. Type of data set: ADME. The settings on record: for Stability: microsomes, 1 h.
The nature of data set [8]: Plasma protein binding in CD-1 mouse at 30 mg/kg, po by ultrafiltration technique. Type of data set: ADME, organism-based. The settings on record: read-out: PPB (converted).
The species entered for data set [9] is Mus musculus. The conditions noted are these: CD-1.
Data set [10] can be described thus: Tmax in CD-1 mouse plasma by HPLC-MS analysis. Type of data set: ADME, organism-based.
[11] abbreviates: liver microsomes, read-out: Stability.

Chain of D-amino-acid oxidase (P14920 whole entry): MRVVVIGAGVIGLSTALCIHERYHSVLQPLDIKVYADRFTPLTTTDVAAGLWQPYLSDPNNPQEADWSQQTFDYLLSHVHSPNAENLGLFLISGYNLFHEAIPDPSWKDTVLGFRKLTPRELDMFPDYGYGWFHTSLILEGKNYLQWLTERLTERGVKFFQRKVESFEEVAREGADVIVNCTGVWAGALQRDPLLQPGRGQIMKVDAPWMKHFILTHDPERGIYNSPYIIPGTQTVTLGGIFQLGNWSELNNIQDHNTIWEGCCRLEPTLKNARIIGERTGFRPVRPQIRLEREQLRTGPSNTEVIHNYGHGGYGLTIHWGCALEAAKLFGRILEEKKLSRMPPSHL

Consider `O=c1[nH]nc(CCc2ccccc2)nc1O`, for which the “inhibition (INH)” value in data set [1] is “Active”; in data set [5] it was “Not Active”. Besides, in [2], the “fold change (FC)” value is reported as 1.7. For the same compound, the Stability in data set [3] was determined as 98%; in data set [7] it was 79%. Also, the IC50 in data set [4] came to 60 nM. The AUC in [6] worked out at 8070 ng·h/mL; in data set [9] it was 74200 ng·h/mL. For the same compound, in [8], the fraction unbound was 0.26. The time of peak concentration (Tmax) in data set [10] is 30 min. Turning to `O=c1[nH]nc(SCCc2ccccc2)nc1O`, in [4], the IC50 is 40000 nM. `O=c1[nH]nc(SCc2ccccc2)nc1O`: in data set [4], the IC50 was 100 nM. `O=c1[nH]c(=O)n(Cc2cccc3ccccc23)nc1O`: the remaining at 1 h in [3] (setting [11]) and in data set [7] (setting [11]) was greater than 99% each time.

On to `O=c1[nH]nc(SCc2ccc(-c3ccccc3)cc2)nc1O`, for which the IC50 in data set [4] worked out at 90 nM.

With `O=c1[nH]nc(SCc2cccc(-c3ccccc3)c2)nc1O`, the IC50 in data set [4] is 700 nM. With `O=c1[nH]nc(SCc2ccc(Cl)c(Cl)c2)nc1O`, the IC50 in data set [4] is 50 nM. Still for that read-out and setting: the result for `O=c1[nH]nc(CCCc2ccccc2)nc1O` reads 4000 nM.

Consider `O=c1[nH]nc(SCC2CCCCC2)nc1O`, for which, in data set [4], the concentration for half-maximal inhibition (IC50) came out at 600 nM. With `O=c1[nH]nc(SCc2noc3ccccc23)nc1O`, the concentration for half-maximal inhibition (IC50) in [4] came out at 200 nM. In the case of `O=c1[nH]nc(SCc2ccc(Cl)cc2)nc1O`, in data set [4], the IC50 is 30 nM.

On to `O=c1[nH]nc(SCc2ccc(I)cc2)nc1O`, for which the IC50 in [4] turned out to be 50 nM.

Consider `O=c1[nH]nc(SCc2ccc3cc(F)ccc3c2)nc1O`, for which the results for the Stability in data set [3] and in [7] were 95% and 91%, respectively. Regarding `CC(C)(C)c1ccc(CSc2n[nH]c(=O)c(O)n2)cc1`, the concentration for half-maximal inhibition (IC50) in data set [4] came out at 300 nM. `O=c1[nH]nc(Cc2ccccc2)nc1O`: the IC50 in data set [4] came to 70 nM.
